Measured values as given in US20080214800A1, “SIRT INHIBITORS THAT BIND TO NAD” (Elixir Pharmaceuticals, Inc., priority 2005, published 2008).

System: HeLa cell
Assay: HeLa cell apoptosis assay, Cell Death Detection ELISA plus kit
Format: cell-based
Set-up: unit not given here
Experimental: The following exemplary compounds were evaluated for their effect on a HeLa cell apoptosis assay using the Cell Death Detection ELISA plus kit from Roche Applied Science.

SMILES | average (HeLa apoptosis assay) (dose 0.5) | average (HeLa apoptosis assay) (dose 2.5) | average (HeLa apoptosis assay) (dose 10) | average (HeLa apoptosis assay) (dose 25)
Cn1c2c(c3cc(Cl)ccc31)C(C(N)=O)CCC2 (centres unmarked) [Compound 5] | 1.00 | 0.97 | 1.07 | 0.91
Oc1ccc(/C=C/c2cc(O)cc(O)c2)cc1 [Resveratol] | 0.83 | 0.84 | 1.01 | 0.56
